Measurements from article PMC5605198, “MELK is not necessary for the proliferation of basal-like breast cancer cells” (eLife, 2017).

Tests used:
EEA1 = test: Quantitative multiplexed proteomics (TMT LC-MS3); format: cell-based, human; conditions: 250 nM, 60 min, MELK−/− MDA-MB-468-FKBP12^F36V-MELK cells
Method: (§1) MELK−/− MDA-MB-468-FKBP12^F36V-MELK cells were treated in duplicates with DMSO for 30 minutes or 60 minutes, or in triplicates with dTAG-7 (250 nM) for 30 minutes or 60 minutes. Cells were washed with ice-cold PBS once, collected by scraping and centrifugation, and lysed in 1 mL of lysis buffer (8 M urea, 1% SDS, 50 mM Tris pH8.5 supplemented with protease and phosphatase inhibitors). A micro-BCA assay (Pierce) was used to determine the protein concentration of each sample. A total of 1200 µg of proteins from each sample was depleted of abundant proteins using two Pierce Top 12 protein depletion spin columns. Eluted proteins were combined, and protein concentration was determined by micro-BCA. Proteins were precipitated on ice for 1 hour with 13% trichloroacetic acid (TCA), washed twice with acetone, and pellets were allowed to air dry. Proteins were resuspended in 6 M urea, 50 mM Tris pH 8.5, reduced with 5 mM dithiothreitol (DTT) at room temperature for 1 hour, and alkylated with 15 mM iodoacetamide in the dark at room temperature for 1 hour. Alkylation was quenched with DTT. Urea concentration was reduced to 4 M and proteins were digested with LysC (1:50; enzyme:protein) for 6 hours at 25°C. The LysC digestion was diluted to 1 M urea, 50 mM Tris pH 8.5 and then digested with trypsin (1:100; enzyme:protein) overnight at 37°C. […] Peptide quantification was performed using the micro-BCA assay (Pierce). […]
(§2) 12 of the 24 peptide fractions from the basic reverse phase fractionation (every other fraction) were analyzed with an LC-MS3 data collection strategy ([McAlister et al., 2014]) on an Orbitrap Fusion mass spectrometer (Thermo Fisher Scientific) equipped with a Proxeon Easy nLC 1000 for online sample handling and peptide separations. […]
(§3) A suite of in-house software tools were used to for. RAW file processing and controlling peptide and protein level false discovery rates, assembling proteins from peptides, and protein quantification from peptides as previously described. […]

MKL1 = test: Quantitative multiplexed proteomics (TMT LC-MS3); format: cell-based, human; conditions: 250 nM, 60 min, MELK−/− MDA-MB-468-FKBP12^F36V-MELK cells
Method: as §1, §2, §3

HNRNPR = test: Quantitative multiplexed proteomics (TMT LC-MS3); format: cell-based, human; conditions: 250 nM, 60 min, MELK−/− MDA-MB-468-FKBP12^F36V-MELK cells
Method: as §1, §2, §3

FKBP12^F36V-MELK(sg3R) = test: dTAG-induced degradation, immunoblot; format: cell-based; conditions: MELK−/− MDA-MB-468-FKBP12^F36V-MELK(sg3R) cells
Method: Four dTAG molecules (7, 13, 36 and 47) that vary in linker length and chemical structure were tested for their efficiency at depleting FKBP12^F36V-MELK(sg3R) (Figure 4A, Figure 4—figure supplement 3).
Figure 4. […] (A) Chemical structure of heterobifunctional dTAG molecule dTAG-47. See also Figure 4—figure supplement 3 for the chemical structures of dTAG-7, dTAG-13 and dTAG-36. (B) Immunoblots for MELK and GAPDH after treatment of dTAG-7, 13, 36, and 47 at indicated concentrations in MELK−/− MDA-MB-468-FKBP12^F36V-MELK(sg3R) cells for 4 hours. See Figure 4—figure supplement 1 for details of the generation of MELK−/− MDA-MB-468-FKBP12^F36V-MELK(sg3R) clones. (C) Same as in 4B, but with treatment at 500 nM and extended treatment times for 14, 24, 48, and 72 hours. (D) Changes in abundance of 7270 proteins (peptide count ≥2) comparing MELK−/− MDA-MB-468-FKBP12^F36V-MELK cells treated with dTAG-7 (250 nM) or DMSO for 1 hour, versus p-value (dTAG-7: triplicate, DMSO: duplicate, limma moderated t-test). See also Figure 4—source datas 1 and 2 for the original and the processed data. (E) Crystal violet staining image showing parental MDA-MB-468 cells and MELK−/− MDA-MB-468-FKBP12^F36V-MELK(sg3R) cells after treatment with DMSO or 500 nM of dTAG-47 for 9 days. Immunoblots showing MELK and GAPDH from a duplicate plate on Day 9 confirmed sustained depletion of FKBP12^F36V-MELK(sg3R). These are representative data from one of two independent experiments. Figure 4—source data 1. Raw integrated ion intensities from quantitative multiplexed proteomics. Figure 4—source data 2. Processed Data and Statistical Analysis by limma (topTable). Figure 4—figure supplement 1. Single clones selected from MDA-MB-468-FKBP12^F36V-MELK(sg3R) cells subject to CRISPR/Cas9-mediated knockout of endogenous MELK. Immunoblots for MELK and GAPDH in single cell clones selected from MDA-MB-468-FKBP12^F36V-MELK(sg3R) transfected with Cas9/sgMELK-3 to knockout endogenous MELK. Clone 1D4 is clone 1 and clone 1A3 is clone 2 in Figure 4. Clone 1D4 was confirmed with heterozygous −1 and +1 indels; clone 1A3 was confirmed with homozygous −1 deletions. [drawing 5] Figure 4—figure supplement 2. […] (A) Immunoblots for MELK, cyclin B1 and GAPDH in asynchronous versus M-phase arrested MDA-MB-468 cells and MDA-MB-468-FKBP12^F36V-MELK(sg3R) cells (clone 1). […] Chemical structures of dTAG molecules. FKBP12^F36V-binding ligands conjugated by variable linkers to thalidomide or pomalidomide, including (A) dTAG-7, (B) dTAG-13 and (C) dTAG-36 are capable of inducing degradation of FKBP12^F36V-tagged proteins of interest. [drawing 7]

MELK = biological target: T1, MELK (Homo sapiens, UniProt P62942+Q14680); test: Quantitative multiplexed proteomics (TMT LC-MS3); format: cell-based; conditions: 250 nM, 60 min, MELK−/− MDA-MB-468-FKBP12^F36V-MELK cells
T1 construct: expressed in transfected cells; host or cells: MDA-MB-468 (lentiviral transduction, endogenous MELK knocked out)
T1 sequence (P62942+Q14680 fused P62942:F37V): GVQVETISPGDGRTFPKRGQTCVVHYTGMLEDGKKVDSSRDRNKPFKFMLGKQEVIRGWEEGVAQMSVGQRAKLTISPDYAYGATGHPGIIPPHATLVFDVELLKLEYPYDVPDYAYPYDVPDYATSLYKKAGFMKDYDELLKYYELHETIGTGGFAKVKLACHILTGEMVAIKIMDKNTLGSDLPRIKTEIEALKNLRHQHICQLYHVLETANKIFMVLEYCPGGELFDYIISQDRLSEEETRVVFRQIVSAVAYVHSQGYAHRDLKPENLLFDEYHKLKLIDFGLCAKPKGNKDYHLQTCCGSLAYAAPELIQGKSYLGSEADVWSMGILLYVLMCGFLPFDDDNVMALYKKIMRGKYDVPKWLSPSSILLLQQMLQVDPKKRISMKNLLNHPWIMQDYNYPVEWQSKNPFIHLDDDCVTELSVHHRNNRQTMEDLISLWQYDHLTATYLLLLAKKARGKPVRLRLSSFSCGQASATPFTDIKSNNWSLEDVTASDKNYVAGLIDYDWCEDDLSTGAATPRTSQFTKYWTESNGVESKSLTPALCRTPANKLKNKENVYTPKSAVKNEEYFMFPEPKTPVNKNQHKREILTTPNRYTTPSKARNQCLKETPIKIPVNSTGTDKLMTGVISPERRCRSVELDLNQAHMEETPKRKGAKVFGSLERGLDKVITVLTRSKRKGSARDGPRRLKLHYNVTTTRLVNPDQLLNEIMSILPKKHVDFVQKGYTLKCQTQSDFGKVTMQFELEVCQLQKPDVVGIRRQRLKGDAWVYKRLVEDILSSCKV
T1 sequence (Q96SW2 whole entry partner): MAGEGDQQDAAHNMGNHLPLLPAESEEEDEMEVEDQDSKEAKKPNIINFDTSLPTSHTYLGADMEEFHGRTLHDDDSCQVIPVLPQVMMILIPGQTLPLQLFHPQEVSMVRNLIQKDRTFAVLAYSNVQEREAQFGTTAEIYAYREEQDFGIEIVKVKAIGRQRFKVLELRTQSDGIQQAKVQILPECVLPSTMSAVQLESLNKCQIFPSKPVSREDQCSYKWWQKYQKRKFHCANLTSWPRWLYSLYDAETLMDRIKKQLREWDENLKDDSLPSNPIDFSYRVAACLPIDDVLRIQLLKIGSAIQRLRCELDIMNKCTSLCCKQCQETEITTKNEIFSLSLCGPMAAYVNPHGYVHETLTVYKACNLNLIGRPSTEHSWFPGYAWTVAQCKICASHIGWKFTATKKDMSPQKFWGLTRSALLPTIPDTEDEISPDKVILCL
T1 sequence (Q16531 2-1140 partner limits assumed): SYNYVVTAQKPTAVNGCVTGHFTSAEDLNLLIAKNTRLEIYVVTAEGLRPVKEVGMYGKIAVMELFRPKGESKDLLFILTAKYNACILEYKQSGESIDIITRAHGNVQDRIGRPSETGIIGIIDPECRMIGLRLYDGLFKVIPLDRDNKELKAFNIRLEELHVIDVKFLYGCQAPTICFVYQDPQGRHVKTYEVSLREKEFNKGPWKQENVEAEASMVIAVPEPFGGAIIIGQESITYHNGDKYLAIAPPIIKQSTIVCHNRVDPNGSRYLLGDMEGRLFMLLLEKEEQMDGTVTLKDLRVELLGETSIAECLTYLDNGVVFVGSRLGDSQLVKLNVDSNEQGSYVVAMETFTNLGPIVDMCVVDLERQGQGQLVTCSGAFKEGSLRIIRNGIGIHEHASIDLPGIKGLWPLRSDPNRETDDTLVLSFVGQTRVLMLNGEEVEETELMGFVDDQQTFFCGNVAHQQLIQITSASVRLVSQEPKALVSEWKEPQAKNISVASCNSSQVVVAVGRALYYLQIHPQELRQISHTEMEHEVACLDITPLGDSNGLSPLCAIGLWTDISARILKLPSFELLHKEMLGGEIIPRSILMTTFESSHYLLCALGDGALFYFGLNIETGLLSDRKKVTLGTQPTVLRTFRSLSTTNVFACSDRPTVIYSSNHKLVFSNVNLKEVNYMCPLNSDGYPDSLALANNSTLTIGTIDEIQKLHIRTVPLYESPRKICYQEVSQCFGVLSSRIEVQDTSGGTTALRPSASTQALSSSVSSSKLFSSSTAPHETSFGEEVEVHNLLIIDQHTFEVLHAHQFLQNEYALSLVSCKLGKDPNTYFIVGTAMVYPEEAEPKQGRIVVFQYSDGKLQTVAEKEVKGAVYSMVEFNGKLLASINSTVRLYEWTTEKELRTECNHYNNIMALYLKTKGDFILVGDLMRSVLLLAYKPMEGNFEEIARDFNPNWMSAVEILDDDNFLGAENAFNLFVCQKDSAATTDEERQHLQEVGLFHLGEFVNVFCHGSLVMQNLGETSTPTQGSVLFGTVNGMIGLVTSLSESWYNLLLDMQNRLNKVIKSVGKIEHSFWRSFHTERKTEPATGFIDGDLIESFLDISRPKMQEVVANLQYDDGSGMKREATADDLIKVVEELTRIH
Method: MELK−/− MDA-MB-468-FKBP12^F36V-MELK cells were treated in duplicates with DMSO for 30 minutes or 60 minutes, or in triplicates with dTAG-7 (250 nM) for 30 minutes or 60 minutes. Cells were washed with ice-cold PBS once, collected by scraping and centrifugation, and lysed in 1 mL of lysis buffer (8 M urea, 1% SDS, 50 mM Tris pH8.5 supplemented with protease and phosphatase inhibitors). A micro-BCA assay (Pierce) was used to determine the protein concentration of each sample. A total of 1200 µg of proteins from each sample was depleted of abundant proteins using two Pierce Top 12 protein depletion spin columns. Eluted proteins were combined, and protein concentration was determined by micro-BCA. […] Peptide quantification was performed using the micro-BCA assay (Pierce). […]
as §2, §3

With `CCC(C(=O)N1CCCCC1C(=O)OC(CCc1ccc(OC)c(OC)c1)c1ccccc1OCC(=O)NCCCOCCOCCOCCCNC(=O)COc1cccc2c1C(=O)N(C1CCC(=O)NC1=O)C2=O)c1cc(OC)c(OC)c(OC)c1` (centres unmarked) [dTAG-7] the “logFC (log2 fold change of dTAG-7 to DMSO) EEA1” value (EEA1) was -0.08592, the “logFC (log2 fold change of dTAG-7 to DMSO) MKL1” value (MKL1) was -0.2984 and the “logFC (log2 fold change of dTAG-7 to DMSO) HNRNPR” value (HNRNPR) was 0.28. The “time to efficient depletion of FKBP12^F36V-MELK(sg3R)” value (FKBP12^F36V-MELK(sg3R)) was no more than 4 h and the “logFC (log2 fold change of dTAG-7 to DMSO) MELK” value (MELK) was -0.8583.
